# According to ChEMBL document CHEMBL5303573, “Mapping human microbiome drug metabolism by gut bacteria and their genes” (Nature, 2019):
# Experiments:
# [1] = The drug is tested on Bifidobacterium breve strain: DSM20213 for biotransformation. The drug concentrations were measured before and after a 12-h incubation by liquid-chromatography-coupled mass spectrometry (LC–MS); conditions: 2 µM
# [2] = The drug is tested on Bacteroides coprophilus strain: DSM18228 for biotransformation. The drug concentrations were measured before and after a 12-h incubation by liquid-chromatography-coupled mass spectrometry (LC–MS); conditions: 2 µM
# [3] = The drug is tested on Bacteroides fragilis strain: HMW610 for biotransformation. The drug concentrations were measured before and after a 12-h incubation by liquid-chromatography-coupled mass spectrometry (LC–MS); conditions: 2 µM
# [4] = The drug is tested on Bacteroides fragilis strain: HMW615 for biotransformation. The drug concentrations were measured before and after a 12-h incubation by liquid-chromatography-coupled mass spectrometry (LC–MS); conditions: 2 µM
# [5] = The drug is tested on Bacteroides uniformis strain: ATCC8492 for biotransformation. The drug concentrations were measured before and after a 12-h incubation by liquid-chromatography-coupled mass spectrometry (LC–MS); conditions: 2 µM
# [6] = The drug is tested on Bacteroides xylanisolvens strain: DSM18836 for biotransformation. The drug concentrations were measured before and after a 12-h incubation by liquid-chromatography-coupled mass spectrometry (LC–MS); conditions: 2 µM
# [7] = The drug is tested on Parabacteroides merdae strain: ATCC43184 for biotransformation. The drug concentrations were measured before and after a 12-h incubation by liquid-chromatography-coupled mass spectrometry (LC–MS); conditions: 2 µM
# [8] = The drug is tested on Clostridium ramosum strain: DSM1402 for biotransformation. The drug concentrations were measured before and after a 12-h incubation by liquid-chromatography-coupled mass spectrometry (LC–MS); conditions: thomasclavelia ramosa, 2 µM
# [9] = The drug is tested on Clostridium scindens strain: ATCC35704 for biotransformation. The drug concentrations were measured before and after a 12-h incubation by liquid-chromatography-coupled mass spectrometry (LC–MS); conditions: 2 µM
# [10] = The drug is tested on Coprococcus comes strain: ATCC27758 for biotransformation. The drug concentrations were measured before and after a 12-h incubation by liquid-chromatography-coupled mass spectrometry (LC–MS); assay type: ADME; set-up: dose 2 uM, timepoint 0 vs 12 hours; conditions: 2 µM
# [11] = The drug is tested on Enterococcus faecalis strain: V583 for biotransformation. The drug concentrations were measured before and after a 12-h incubation by liquid-chromatography-coupled mass spectrometry (LC–MS); conditions: 2 µM
# [12] = The drug is tested on Providencia rettgeri strain: DSM1131 for biotransformation. The drug concentrations were measured before and after a 12-h incubation by liquid-chromatography-coupled mass spectrometry (LC–MS); assay type: ADME; set-up: dose 2 uM, timepoint 0 vs 12 hours; conditions: 2 µM
# [13] = bacteroides intestinalis, 12 h, 2 µM
# Description: The drug is tested on Bacteroides intestinalis strain: DSM17393 for biotransformation. The drug concentrations were measured before and after a 12-h incubation by liquid-chromatography-coupled mass spectrometry (LC–MS)
# [14] = bacteroides thetaiotaomicron, 12 h, 2 µM
# Description: The drug is tested on Bacteroides thetaiotaomicron strain: 3731 for biotransformation. The drug concentrations were measured before and after a 12-h incubation by liquid-chromatography-coupled mass spectrometry (LC–MS)
# [15] = bacteroides thetaiotaomicron, 12 h, 2 µM; remark: listed apart in the source
# Description: The drug is tested on Bacteroides thetaiotaomicron strain: 7330 for biotransformation. The drug concentrations were measured before and after a 12-h incubation by liquid-chromatography-coupled mass spectrometry (LC–MS)
# [16] = limosilactobacillus reuteri cf48-3a, 12 h, 2 µM
# Description: The drug is tested on Lactobacillus reuteri CF48-3A strain: BEI HM-102 for biotransformation. The drug concentrations were measured before and after a 12-h incubation by liquid-chromatography-coupled mass spectrometry (LC–MS)
# [17] = roseburia intestinalis, 12 h, 2 µM
# Description: The drug is tested on Roseburia intestinalis strain: L1-82 for biotransformation. The drug concentrations were measured before and after a 12-h incubation by liquid-chromatography-coupled mass spectrometry (LC–MS)
# [18] = The drug is tested on Anaerotruncus colihominis strain: DSM17241 for biotransformation. The drug concentrations were measured before and after a 12-h incubation by liquid-chromatography-coupled mass spectrometry (LC–MS); conditions: 2 µM
# [19] = The drug is tested on Clostridium sporogenes strain: ATCC15579 for biotransformation. The drug concentrations were measured before and after a 12-h incubation by liquid-chromatography-coupled mass spectrometry (LC–MS); conditions: 2 µM
Structure (SMILES),Bacterial Biotransformation [1],Bacterial Biotransformation [2],Bacterial Biotransformation [3],Bacterial Biotransformation [4],Bacterial Biotransformation [5],Bacterial Biotransformation [6],Bacterial Biotransformation [7],Bacterial Biotransformation [8],Bacterial Biotransformation [9],Bacterial Biotransformation [10],Bacterial Biotransformation [11],Bacterial Biotransformation [12],Bacterial Biotransformation [13],Bacterial Biotransformation [14],Bacterial Biotransformation [15],Bacterial Biotransformation [16],Bacterial Biotransformation [17],Bacterial Biotransformation [18],Bacterial Biotransformation [19]
CS(=O)(=O)O.O.O.O.O=C1Cc2cc(CCN3CCN(c4nsc5ccccc45)CC3)c(Cl)cc2N1 [ZIPRASIDONE MESYLATE],Compound NOT metabolized,Compound NOT metabolized,Compound NOT metabolized,Compound NOT metabolized,Compound NOT metabolized,Compound NOT metabolized,Compound NOT metabolized,Compound NOT metabolized,Compound NOT metabolized,Compound NOT metabolized,Compound NOT metabolized,Compound NOT metabolized,Compound NOT metabolized,Compound NOT metabolized,Compound NOT metabolized,Compound NOT metabolized,Compound NOT metabolized,–,–
Nc1c2c(nc3ccccc13)CCCC2 [TACRINE],Compound NOT metabolized,–,–,Compound NOT metabolized,Compound NOT metabolized,Compound NOT metabolized,–,Compound NOT metabolized,Compound NOT metabolized,Compound NOT metabolized,Compound NOT metabolized,–,Compound NOT metabolized,Compound NOT metabolized,–,Compound NOT metabolized,Compound NOT metabolized,Compound NOT metabolized,Compound NOT metabolized
C[C@@H](CO)NC(=O)[C@@H]1C=C2c3cccc4[nH]cc(c34)C[C@H]2N(C)C1.O=C(O)/C=C\C(=O)O [ERGONOVINE MALEATE],–,Compound metabolized,Compound metabolized,Compound metabolized,Compound metabolized,Compound metabolized,–,Compound NOT metabolized,Compound metabolized,Compound metabolized,Compound NOT metabolized,Compound NOT metabolized,Compound metabolized,Compound NOT metabolized,Compound metabolized,Compound metabolized,Compound NOT metabolized,Compound metabolized,–
CCN(CC)CCNC(C(=O)OCCC(C)C)c1ccccc1.Cl.Cl (stereo not given),–,Compound NOT metabolized,Compound NOT metabolized,Compound NOT metabolized,–,Compound NOT metabolized,–,Compound NOT metabolized,Compound NOT metabolized,Compound NOT metabolized,Compound NOT metabolized,Compound NOT metabolized,Compound NOT metabolized,–,–,Compound NOT metabolized,Compound NOT metabolized,Compound NOT metabolized,Compound NOT metabolized
CN[C@H]1CC[C@@H](c2ccc(Cl)c(Cl)c2)c2ccccc21 [SERTRALINE],Compound NOT metabolized,–,Compound NOT metabolized,–,Compound NOT metabolized,–,Compound NOT metabolized,Compound NOT metabolized,Compound NOT metabolized,–,Compound NOT metabolized,Compound NOT metabolized,Compound NOT metabolized,Compound NOT metabolized,Compound NOT metabolized,Compound NOT metabolized,–,Compound NOT metabolized,Compound NOT metabolized
CN1CC(=O)N2[C@H](c3ccc4c(c3)OCO4)c3[nH]c4ccccc4c3C[C@@H]2C1=O,Compound NOT metabolized,Compound NOT metabolized,Compound metabolized,Compound metabolized,Compound NOT metabolized,–,Compound NOT metabolized,Compound NOT metabolized,Compound NOT metabolized,Compound NOT metabolized,Compound NOT metabolized,Compound NOT metabolized,Compound NOT metabolized,Compound metabolized,Compound metabolized,Compound NOT metabolized,Compound NOT metabolized,Compound NOT metabolized,–
CC(C)OC(=O)C(C)(C)Oc1ccc(C(=O)c2ccc(Cl)cc2)cc1 [FENOFIBRATE],–,–,Compound NOT metabolized,Compound NOT metabolized,Compound metabolized,–,–,Compound NOT metabolized,Compound NOT metabolized,–,–,Compound NOT metabolized,Compound NOT metabolized,Compound NOT metabolized,Compound NOT metabolized,Compound NOT metabolized,–,Compound metabolized,–
CCN(C)C(=O)Oc1cccc([C@H](C)N(C)C)c1.O=C(O)C(O)C(O)C(=O)O [RIVASTIGMINE TARTRATE],Compound NOT metabolized,–,Compound NOT metabolized,Compound NOT metabolized,Compound NOT metabolized,Compound NOT metabolized,Compound NOT metabolized,Compound NOT metabolized,Compound NOT metabolized,Compound NOT metabolized,Compound NOT metabolized,Compound NOT metabolized,Compound NOT metabolized,Compound NOT metabolized,–,Compound NOT metabolized,Compound NOT metabolized,Compound NOT metabolized,Compound NOT metabolized
CC(=O)CC(c1ccccc1)c1c(O)c2ccccc2oc1=O (stereo not given) [WARFARIN],Compound NOT metabolized,Compound NOT metabolized,–,Compound metabolized,Compound NOT metabolized,–,Compound NOT metabolized,Compound NOT metabolized,Compound NOT metabolized,Compound NOT metabolized,Compound NOT metabolized,Compound NOT metabolized,Compound NOT metabolized,Compound NOT metabolized,Compound NOT metabolized,Compound NOT metabolized,Compound NOT metabolized,Compound NOT metabolized,–
c1ccc2[nH]c(-c3cscn3)nc2c1 [THIABENDAZOLE],Compound NOT metabolized,–,–,Compound NOT metabolized,Compound NOT metabolized,Compound NOT metabolized,–,Compound NOT metabolized,Compound NOT metabolized,Compound NOT metabolized,Compound NOT metabolized,Compound NOT metabolized,Compound NOT metabolized,–,–,Compound NOT metabolized,Compound NOT metabolized,Compound NOT metabolized,Compound NOT metabolized
